What was measured:
Type in all cases: in vivo
lean mice = experiment: Diet induced obesity model, treatment arm TA2 (lean mice, regular chow diet); details: 100 mg/kg ip bid Day 1-28, mean ± SEM
Description: (§1) In a diet induced obesity (DIO) model in mice, two treatment arms of mice were tested. In the first treatment arm (TA1), DIO mice in four treatment groups (treated: 25 mg/kg, 50 mg/kg and 100 mg/kg and non-treated vehicle control) were fed a high fat diet. In the second treatment arm (TA2), lean mice in two treatment groups (treated: 100 mg/kg and non-treated vehicle control) were fed a regular chow diet. After 7 days acclimation to the diet, the treated groups in each arm were dosed (0.1 mL, ip, bid) with a test compound from Day 1 to Day 28 of the study. After 7 days acclimation to the diet, the non-treated groups in each arm were dosed (0.1 mL, ip, bid) with vehicle from Day 1 to Day 28 of the study. Body weight was monitored twice per week and on Day 28. After sacrifice, blood glucose, body weight, body mass, serum MCP-1 and insulin levels were also recorded. MCP-1 was measured by ELISA. The statistical analysis for p value was performed using the program Prism (Graphpad, Monrovia, Calif.) with the Student t-test (unpaired). All data are presented as the mean ± standard error of the mean (SEM).

DIO mice = experiment: Diet induced obesity (DIO) model, treatment arm TA1 (high fat diet); details: for Body Weight Gain / Change in Fat Mass / Change in Lean Mass / Change in Water / Food Intake / Plasma MCP-1: TA1 DIO mice, high fat diet, mean ± SEM
Description: as §1

NON (NONcNZO10/LtJ) mice = experiment: Insulin sensitivity model: Day 28 blood samples and body weight; details: mean ± SEM
Description: In an insulin sensitivity model in mice, four month old male NON (NONcNZO10/LtJ) mice in four treatment groups (treated: 25 mg/kg, 50 mg/kg and 100 mg/kg and non-treated vehicle control) were fed LabDiet® 5K20 for 28 days. The treated groups were dosed (0.1 mL, ip, bid) with a test compound from Day 1 to Day 28. The non-treated group was dosed (0.1 mL, ip, q.d.) with vehicle from Day 1 to Day 28. Body weight and blood glucose were monitored once per week and an insulin tolerance test was performed by i.p. injection of […] insulin, then fed blood glucose levels were measured at 0, 15, 30, 60, 90, and 120 min after insulin administration. The insulin tolerance test blood glucose levels at the time points the sample were taken after insulin administration are shown in Table 5. After sacrifice on Day 28, blood samples were collected to measure HbA1c, plasma levels of glucose, plasma insulin, FFA (free fatty acids) and MCP-1. Blood glucose levels were measured using a Glucometer. MCP-1 and insulin were measured by ELISA. Plasma glucose and FFA were measured using Weko kits. The statistical analysis for p value was performed using the program Prism (Graphpad, Monrovia, Calif.) with the Student t-test (unpaired). All data are presented as the mean ± standard error of the mean (SEM).

O=C(O)[C@H](C1CCN(C(=O)/C=C/c2cc(F)c(F)c(F)c2)CC1)N1CCC(c2c[nH]c3ccccc23)CC1 [(S)-{[4-(1H-indol-3-yl)-piperidin-1-yl]}-{1-[(2E)-3-(3,4,5-trifluoro-phenyl)-acryloyl]-piperidin-4-yl}-acetic acid]
Body Weight Gain (lean mice): 2.3 ± 1.5 g
Change in Fat Mass (lean mice): 0.6 ± 0.3 g
Change in Lean Mass (lean mice): 3.4 ± 0.8 g
Change in Water (lean mice): 3.1 ± 0.7 g
Food Intake (lean mice): 22.8 ± 1.7 g/7 days
Plasma MCP-1 (lean mice): 646.8 ± 112.5 pg/mL
body fat mass gain (DIO mice; DIO model in mice): significantly reduced
lean mass (DIO mice; DIO model in mice): no change
weight gain (DIO mice; DIO model in mice): significantly reduced
Body Weight Gain (DIO mice; 25 mg/kg ip bid Day 1-28): 3.8 ± 1.2 g
Change in Fat Mass (DIO mice; 25 mg/kg ip bid Day 1-28): 0.9 ± 0.7 g
Change in Lean Mass (DIO mice; 25 mg/kg ip bid Day 1-28): 3.1 ± 0.9 g
Change in Water (DIO mice; 25 mg/kg ip bid Day 1-28): 2.8 ± 0.8 g
Food Intake (DIO mice; 25 mg/kg ip bid Day 1-28): 14.0 ± 1.6 g/7 days
Plasma MCP-1 (DIO mice; 25 mg/kg ip bid Day 1-28): 69.2 ± 5.6 pg/mL
Body Weight Gain (DIO mice; 50 mg/kg ip bid Day 1-28): 3.4 ± 1.1 g
Change in Fat Mass (DIO mice; 50 mg/kg ip bid Day 1-28): 0.4 ± 0.6 g
Change in Lean Mass (DIO mice; 50 mg/kg ip bid Day 1-28): 4.9 ± 0.9 g
Change in Water (DIO mice; 50 mg/kg ip bid Day 1-28): 4.5 ± 0.8 g
Food Intake (DIO mice; 50 mg/kg ip bid Day 1-28): 13.5 ± 1.8 g/7 days
Plasma MCP-1 (DIO mice; 50 mg/kg ip bid Day 1-28): 98.3 ± 7.6 pg/mL
Body Weight Gain (DIO mice; 100 mg/kg ip bid Day 1-28): 2.3 ± 1.8 g
Change in Fat Mass (DIO mice; 100 mg/kg ip bid Day 1-28): 0.2 ± 0.3 g
Change in Lean Mass (DIO mice; 100 mg/kg ip bid Day 1-28): 3.4 ± 0.3 g
Change in Water (DIO mice; 100 mg/kg ip bid Day 1-28): 2.9 ± 0.3 g
Food Intake (DIO mice; 100 mg/kg ip bid Day 1-28): 14.5 ± 3.6 g/7 days
Plasma MCP-1 (DIO mice; 100 mg/kg ip bid Day 1-28): 503.5 ± 69.7 pg/mL
Blood HbA1c (NON (NONcNZO10/LtJ) mice; Day 28, 25 mg/kg ip bid): 6.6 ± 0.5%
Body Weight (NON (NONcNZO10/LtJ) mice; Day 28, 25 mg/kg ip bid): 45.2 ± 1.4 g
Plasma FFA (NON (NONcNZO10/LtJ) mice; Day 28, 25 mg/kg ip bid): 1.2 ± 0.4 mM
Plasma Glucose (NON (NONcNZO10/LtJ) mice; Day 28, 25 mg/kg ip bid): 413 ± 52 mg/dL
Plasma Insulin (NON (NONcNZO10/LtJ) mice; Day 28, 25 mg/kg ip bid): 5.8 ± 0.7 ng/mL
Plasma MCP-1 (NON (NONcNZO10/LtJ) mice; Day 28, 25 mg/kg ip bid): 56.6 ± 3.0 pg/mL
Blood HbA1c (NON (NONcNZO10/LtJ) mice; Day 28, 50 mg/kg ip bid): 6.7 ± 0.7%
Body Weight (NON (NONcNZO10/LtJ) mice; Day 28, 50 mg/kg ip bid): 42.6 ± 0.8 g
Plasma FFA (NON (NONcNZO10/LtJ) mice; Day 28, 50 mg/kg ip bid): 1.0 ± 0.2 mM
Plasma Glucose (NON (NONcNZO10/LtJ) mice; Day 28, 50 mg/kg ip bid): 358 ± 58 mg/dL
Plasma Insulin (NON (NONcNZO10/LtJ) mice; Day 28, 50 mg/kg ip bid): 5.4 ± 0.9 ng/mL
Plasma MCP-1 (NON (NONcNZO10/LtJ) mice; Day 28, 50 mg/kg ip bid): 177.4 ± 63.4 pg/mL
Blood HbA1c (NON (NONcNZO10/LtJ) mice; Day 28, 100 mg/kg ip bid): 5.0 ± 0.2 %
Body Weight (NON (NONcNZO10/LtJ) mice; Day 28, 100 mg/kg ip bid): 43.6 ± 0.9 g
Plasma FFA (NON (NONcNZO10/LtJ) mice; Day 28, 100 mg/kg ip bid): 0.6 ± 0.1 mM

— US20070219245A1, “METHOD OF USE FOR SUBSTITUTED DIPIPERIDINE CCR2 ANTAGONISTS” (priority 2006, published 2007)
